Assay results reported in EPA's ToxRefDB 2.

Experiments:
rat [1] = details: Sub-acute repeat dose toxicity, sprague dawley, Oral, Gavage/Intubation, dose end: 1 month, group: systemic
rat [2] = details: Prenatal developmental toxicity study, sprague dawley, Oral, Gavage/Intubation, dose end: 17 GD
dog [3] = details: Sub-acute repeat dose toxicity; beagle; Oral; Gavage/Intubation; dose end: 1 month; group: systemic; systemic / in life observation / clinical signs / external lesion(s) + systemic / in life observation / clinical signs / reactivity to …
rat [4] = details: Fertility (Segment I), sprague dawley, Oral, Gavage/Intubation, dose end: 7 PND
rat [5] = details: Prenatal developmental toxicity study, sprague dawley, Oral, Gavage/Intubation, dose end: 17 GD; remark: listed apart in the source
rabbit = details: Prenatal developmental toxicity study, new zealand white, Oral, Gavage/Intubation, dose end: 19 GD
rat [6] = details: Sub-acute repeat dose toxicity, sprague dawley, Oral, Gavage/Intubation, dose end: 5 day, group: systemic
dog [7] = details: Sub-acute repeat dose toxicity, beagle, Oral, Gavage/Intubation, dose end: 7 day, group: systemic
dog [8] = details: Sub-acute repeat dose toxicity, beagle, Oral, Gavage/Intubation, dose end: 5 day, group: systemic
[9] = systemic / in life observation / body weight / body weight + systemic / in life observation / body weight / body weight gain + systemic / in…
[10] = systemic / in life observation / clinical signs / body temperature
[11] = group: developmental, developmental / developmental malformation / bone / [other] + developmental / developmental malformation / bone / absent + developmental / …
[12] = group: maternal, reproductive / reproductive performance / postimplantation loss / postimplantation loss + reproductive / reproductive performance / …
[13] = group: maternal, systemic / in life observation / body weight / body weight gain + systemic / in life observation / food consumption / food consumption
[14] = group: maternal, reproductive / reproductive performance / estrous cycle / abnormal + reproductive / reproductive performance / estrous cycle / corpora lutea…
[15] = group: parental, systemic / in life observation / body weight / body weight gain + systemic / in life observation / clinical signs / salivation + systemic / …
[16] = group: parental, systemic / in life observation / clinical signs / salivation
[17] = group: developmental, systemic / in life observation / body weight / fetal weight
[18] = group: maternal, systemic / in life observation / body weight / body weight gain + systemic / in life observation / clinical signs / body cold to touch + …
[19] = group: maternal, reproductive / reproductive performance / aborted / aborted + reproductive / reproductive performance / postimplantation loss / …
[20] = group: maternal, reproductive / reproductive performance / aborted / aborted + systemic / in life observation / clinical signs / body temperature + systemic…
[21] = systemic / in life observation / body weight / body weight + systemic / in life observation / clinical signs / [other] + systemic / in life …
[22] = systemic / in life observation / body weight / body weight + systemic / in life observation / food consumption / food consumption + systemic…
[23] = systemic / in life observation / clinical signs / erythema + systemic / in life observation / clinical signs / prostration + systemic / in …
[24] = systemic / in life observation / clinical signs / erythema + systemic / in life observation / clinical signs / salivation
[25] = systemic / in life observation / clinical signs / abnormal feces
[26] = systemic / in life observation / clinical signs / abnormal feces + systemic / in life observation / clinical signs / emesis

`O=C(Nc1ccc2[nH]ccc2c1)c1cc2cc(F)ccc2n1Cc1cccc(F)c1` was tested, and the LOAEL (rat [1]; [9]) was 100 mg/kg/day, the NOAEL (rat [1]; [9]) was 2 mg/kg/day and the LEL (rat [1]; [10]) was 2 mg/kg/day. For the same compound, the NEL (rat [1]; [10]) was less than 2 mg/kg/day, the LEL (rat [2]; [11]) was 6 mg/kg/day and the LOAEL (rat [2]; [11]) was 6 mg/kg/day. The NEL (rat [2]; [11]) was 1 mg/kg/day, the NOAEL (rat [2]; [11]) was 1 mg/kg/day and the LOAEL (rat [2]; [12]) was 6 mg/kg/day. It also gave an NOAEL (rat [2]; [12]) of 1 mg/kg/day, an LEL (rat [2]; [13]) of 1 mg/kg/day and an NEL (rat [2]; [13]) of less than 1 mg/kg/day. For the same compound, the LEL (dog [3]) was 0.05 mg/kg/day, the LOAEL (dog [3]) was greater than 1 mg/kg/day and the NEL (dog [3]) was less than 0.05 mg/kg/day. The NOAEL (dog [3]) was no less than 1 mg/kg/day, the LEL (rat [4]; [14]) was 6 mg/kg/day and the LOAEL (rat [4]; [14]) was 6 mg/kg/day. The NEL (rat [4]; [14]) was 1 mg/kg/day, the NOAEL (rat [4]; [14]) was 1 mg/kg/day and the LOAEL (rat [4]; [15]) was 6 mg/kg/day. The NOAEL (rat [4]; [15]) was 1 mg/kg/day, the LEL (rat [4]; [16]) was 1 mg/kg/day and the NEL (rat [4]; [16]) was less than 1 mg/kg/day. The LEL (rat [5]; [17]) was 10 mg/kg/day, the LOAEL (rat [5]; [17]) was greater than 400 mg/kg/day and the NEL (rat [5]; [17]) was less than 10 mg/kg/day. It also gave an NOAEL (rat [5]; [17]) of no less than 400 mg/kg/day, an LEL (rat [5]; [18]) of 10 mg/kg/day and an LOAEL (rat [5]; [18]) greater than 400 mg/kg/day. It also gave an NEL (rat [5]; [18]) of less than 10 mg/kg/day, an NOAEL (rat [5]; [18]) of no less than 400 mg/kg/day and an LEL (rabbit; [17]) of 5 mg/kg/day. The LOAEL (rabbit; [17]) was greater than 900 mg/kg/day, the NEL (rabbit; [17]) was less than 5 mg/kg/day and the NOAEL (rabbit; [17]) was no less than 900 mg/kg/day. The LOAEL (rabbit; [19]) was greater than 900 mg/kg/day, the NOAEL (rabbit; [19]) was no less than 900 mg/kg/day and the LEL (rabbit; [20]) was 5 mg/kg/day. For the same compound, the NEL (rabbit; [20]) was less than 5 mg/kg/day.

`COc1ccc(NC(=O)c2c[nH]c3c2C(=O)CCCC3)c(F)c1` was tested, and the LOAEL (rat [6]; [21]) was greater than 250 mg/kg/day, the NOAEL (rat [6]; [21]) was no less than 250 mg/kg/day and the LEL (rat [6]; [22]) was 25 mg/kg/day. The NEL (rat [6]; [22]) was less than 25 mg/kg/day, the LOAEL (dog [7]; [23]) was greater than 250 mg/kg/day and the NOAEL (dog [7]; [23]) was no less than 250 mg/kg/day. For the same compound, the LEL (dog [7]; [24]) was 10 mg/kg/day, the NEL (dog [7]; [24]) was less than 10 mg/kg/day and the LOAEL (dog [8]; [25]) was greater than 100 mg/kg/day. The NOAEL (dog [8]; [25]) was no less than 100 mg/kg/day, the LEL (dog [8]; [26]) was 5 mg/kg/day and the NEL (dog [8]; [26]) was less than 5 mg/kg/day.
